# Measured values reported in patent publication US9586958B2, “Prodrug derivatives of substituted triazolopyridines” (BAYER PHARMA AKTIENGESELLSCHAFT, priority 2013, dated 2017).
# Read-outs that look alike come from different tables or passages of the source.
# How the values were obtained:
# [1] = Solubility of compound A1 at 25° C. in different solvents; assay type: physicochemical
# [2] = tested on: HeLa human cervical tumor cells; experiment: Proliferation assay, HeLa cells (crystal violet); assay type: cell-based
# Description: (§1) Cultivated tumor cells (MCF7, hormone dependent human mammary carcinoma cells, ATCC HTB22; NCI-H460, human non-small cell lung carcinoma cells, ATCC HTB-177; DU 145, hormone-independent human prostate carcinoma cells, ATCC HTB-81; HeLa-MaTu, human cervical carcinoma cells, EPO-GmbH, Berlin; HeLa-MaTu-ADR, multidrug-resistant human cervical carcinoma cells, EPO-GmbH, Berlin; HeLa human cervical tumor cells, ATCC CCL-2; B16F10 mouse melanoma cells, ATCC CRL-6475) were plated at a density of 5000 cells/well (MCF7, DU145, HeLa-MaTu-ADR), 3000 cells/well (NCI-H460, HeLa-MaTu, HeLa), or 1000 cells/well (B16F10) in a 96-well multititer plate in 200 μl of their respective growth medium supplemented 10% fetal calf serum. After 24 hours, the cells of one plate (zero-point plate) were stained with crystal violet (see below), while the medium of the other plates was replaced by fresh culture medium (200 μl), to which the test substances were added in various concentrations (0 μM, as well as in the range of 0.01-30 μM; the final concentration of the solvent dimethyl sulfoxide was 0.5%). The cells were incubated for 4 days in the presence of test substances. Cell proliferation was determined by staining the cells with crystal violet: the cells were fixed by adding 20 μl/measuring point of an 11% glutaric aldehyde solution for 15 minutes at room temperature. After three washing cycles of the fixed cells with water, the plates were dried at room temperature. The cells were stained by adding 100 μl/measuring point of a 0.1% crystal violet solution (pH 3.0). After three washing cycles of the stained cells with water, the plates were dried at room temperature. The dye was dissolved by adding 100 μl/measuring point of a 10% acetic acid solution. The extinction was determined by photometry at a wavelength of 595 nm. The change of cell number, in percent, was calculated by normalization of the measured values to the extinction values of the zero-point plate (=0%) and the extinction of the untreated (0 μm) cells (=100%). The IC50 values were determined by means of a 4 parameter fit.
# [3] = tested on: HeLa-MaTu-ADR, multidrug-resistant human cervical carcinoma cells; experiment: Proliferation assay, HeLa-MaTu-ADR cells (crystal violet); assay type: cell-based; conditions: read-out: IC50 determined in a HeLa-MaTu-ADR cell proliferation assay
# Description: as §1
# [4] = Metabolic stability in vitro, rat liver microsomes (calculation of Fmax); assay type: in vitro ADME
# Description: (§2) The metabolic stability of test compounds in vitro was determined by incubating them at 1 μM with a suspension liver microsomes in 100 mM phosphate buffer, pH7.4 (NaH2PO4×H2O+Na2HPO4×2H2O) at a protein concentration of 0.5 mg/mL and at 37° C. The reaction was activated by adding a co-factor mix containing 1.2 mg NADP, 3 IU glucose-6-phosphate dehydrogenase, 14.6 mg glucose-6-phosphate and 4.9 mg MgCl2 in phosphate buffer, pH 7.4. Organic solvent in the incubations was limited to <0.2% dimethylsulfoxide (DMSO) and <1% methanol. During incubation, the microsomal suspensions were continuously shaken and aliquots were taken at 2, 8, 16, 30, 45 and 60 min, to which equal volumes of cold methanol were immediately added. Samples were frozen at −20° C. over night, subsequently centrifuged for 15 minutes at 3000 rpm and the supernatant was analyzed with an Agilent 1200 HPLC-system with LCMS/MS detection.
# (§3) The half-life of a test compound was determined from the concentration-time plot. From the half-life the intrinsic clearances were calculated. Together with the additional parameters liver blood flow, specific liver weight and microsomal protein content the hepatic in vivo blood clearance (CL) and the maximal oral bioavailability (Fmax) were calculated for the different species. The following parameter values were used: Liver blood flow—1.3 L/h/kg (human), 2.1 L/h/kg (dog), 4.2 L/h/kg (rat); specific liver weight—21 g/kg (human), 39 g/kg (dog), 32 g/kg (rat); microsomal protein content—40 mg/g.
# (§4) With the described assay only phase-I metabolism of microsomes is reflected, e.g. typically oxidoreductive reactions by cytochrome P450 enzymes and flavin mono-oxygenases (FMO) and hydrolytic reactions by esterases (esters and amides).
# [5] = Metabolic stability in vitro, human liver microsomes (calculation of Fmax); assay type: in vitro ADME; conditions: for Human liver microsomes; Fmax [%]: 1 μM; for calculated maximal oral bioavailability (Fmax) at 1 μM: pH 7.4, determined by means of human liver microsomes, read-out: maximum oral bioavailability (Fmax) in human
# Description: as §2, §3, §4
# [6] = Metabolic stability in vitro, dog liver microsomes (calculation of Fmax); assay type: in vitro ADME
# Description: as §2, §3, §4
# [7] = biological target: T1, human kinase Mps-1 (Homo sapiens, UniProt P33981); experiment: Mps-1 kinase assay (TR-FRET) with 10 μM ATP; assay type: biochemical
# T1 construct: N-terminally GST-tagged human full length recombinant Mps-1 kinase; GST (N); purchased Invitrogen, Karslruhe, Germany PV4071
# T1 sequence (P33981 1-857): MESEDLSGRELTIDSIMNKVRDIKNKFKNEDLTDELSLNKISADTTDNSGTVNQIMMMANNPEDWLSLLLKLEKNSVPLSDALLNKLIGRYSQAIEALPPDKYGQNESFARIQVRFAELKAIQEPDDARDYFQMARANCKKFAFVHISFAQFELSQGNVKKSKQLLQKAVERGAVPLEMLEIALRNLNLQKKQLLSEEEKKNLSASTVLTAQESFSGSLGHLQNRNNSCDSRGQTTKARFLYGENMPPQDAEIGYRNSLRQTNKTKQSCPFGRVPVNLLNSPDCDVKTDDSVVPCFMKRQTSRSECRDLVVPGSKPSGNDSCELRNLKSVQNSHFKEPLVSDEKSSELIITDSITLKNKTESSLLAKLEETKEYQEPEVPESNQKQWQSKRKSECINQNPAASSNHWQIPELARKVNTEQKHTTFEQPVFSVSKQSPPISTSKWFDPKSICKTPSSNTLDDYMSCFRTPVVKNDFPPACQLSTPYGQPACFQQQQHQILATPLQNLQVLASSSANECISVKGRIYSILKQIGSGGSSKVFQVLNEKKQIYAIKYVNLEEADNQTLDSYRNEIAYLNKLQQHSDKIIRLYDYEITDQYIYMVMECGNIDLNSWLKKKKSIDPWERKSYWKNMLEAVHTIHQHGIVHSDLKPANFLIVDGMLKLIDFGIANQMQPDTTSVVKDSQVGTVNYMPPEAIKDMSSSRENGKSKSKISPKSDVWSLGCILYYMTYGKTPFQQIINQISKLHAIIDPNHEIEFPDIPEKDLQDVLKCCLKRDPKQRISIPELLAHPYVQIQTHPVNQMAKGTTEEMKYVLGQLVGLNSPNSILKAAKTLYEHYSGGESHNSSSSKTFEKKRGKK
# [8] = biological target: T1, human kinase Mps-1; experiment: Mps-1 kinase assay (TR-FRET) with 2 mM ATP; assay type: biochemical
# [9] = 96 h, HeLa cells, 4 days, read-out: Inhibition of cell proliferation, cell Line: HeLa IC50
# [10] = HeLa, comparison table with comparative examples, read-out: Inhibition of cell proli-feration, cell line: HeLa, IC50
# [11] = HeLa, read-out: IC50 in a HeLa cell proliferation assay
# [12] = comparison table with comparative examples
# [13] = Mps-1 Inhibition, IC50 (Assay with 10 μM ATP), comparison table with comparative examples
structure (smiles),measurement,setting,value
"COc1cc(S(C)(=O)=O)ccc1Nc1nc2ccc(-c3ccc(NC(=O)[C@H](C)c4ccc(F)cc4)cc3)cn2n1 [Compound A1, (2R)-2-(4-fluorophenyl)-N-[4-(2-{[2-methoxy-4-(methylsulfonyl)phenyl]-amino}[1,2,4]triazolo[1,5-α]pyridin-6-yl)phenyl]propanamide]",dissolved amount in mg/100 mL solution,[1]; 0.1M HCl in water,<0.1 mg/100 mL
same,dissolved amount in mg/100 mL solution,"[1]; aqueous solution, acetate buffer pH 4.5",<0.1 mg/100 mL
same,dissolved amount in mg/100 mL solution,"[1]; aqueous solution, phopshate buffer pH 7",<0.1 mg/100 mL
same,dissolved amount in mg/100 mL solution,"[1]; aqueous solution, phopshate buffer pH 8",<0.1 mg/100 mL
same,dissolved amount in mg/100 mL solution,[1]; solvent acetone,1518.3 mg/100 mL
same,dissolved amount in mg/100 mL solution,[1]; solvent acetonitrile,350.2 mg/100 mL
same,dissolved amount in mg/100 mL solution,[1]; solvent ethanol,45.7 mg/100 mL
same,dissolved amount in mg/100 mL solution,[1]; solvent water,<0.1 mg/100 mL
same,IC50,[2]; [9],< 400 nM
same,IC50,[2]; [10],< 400 nM
same,IC50,[2]; [11],< 400 nM
same,IC50,[3],< 10000 nM
same,Rat liver microsomes; Fmax [%],[4]; [12],92%
same,Rat liver microsomes; Fmax [%],"[4]; rat liver microsomes, 1 μM",92%
same,Human liver microsomes; Fmax [%],[5],92%
same,calculated maximal oral bioavailability (Fmax) at 1 μM,[5],> 60%
same,Dog liver microsomes; Fmax [%],[6]; [12],64%
same,Dog liver microsomes; Fmax [%],"[6]; dog liver microsomes, 1 μM",64%
"C[C@@H](C(=O)Nc1ccc(-c2ccc3nc(Nc4ccc(S(C)(=O)=O)cc4OCC(F)(F)F)nn3c2)cc1)c1ccc(F)cc1 [Compound A2, (2R)-2-(4-fluorophenyl)-N-[4-(2-{[4-(methylsulfonyl)-2-(2,2,2-trifluoro-ethoxy)phenyl]amino}[1,2,4]triazolo[1,5-α]pyridin-6-yl)phenyl]-propanamide]",IC50,[2]; [9],< 200 nM
same,IC50,[2]; [10],< 200 nM
same,IC50,[2]; [11],< 400 nM
same,IC50,[3],< 10000 nM
same,IC50,[7]; IC50 in an Mps-1 kinase assay with a concentration of 10 μM ATP,≤ 1 nM
same,IC50,[7]; [13],< 1 nM
same,IC50,"[7]; Mps-1 Inhibition, IC50 in M (Assay with 10 μM ATP)",< 1 nM
same,IC50,[8]; IC50 in an Mps-1 kinase assay with a concentration of 2 mM ATP,< 2 nM
same,IC50,"[8]; Mps-1 Inhibition, IC50 in M (Assay with 2 mM ATP)",< 1 nM
same,Rat liver microsomes; Fmax [%],[4]; [12],93%
same,Rat liver microsomes; Fmax [%],"[4]; rat liver microsomes, 1 μM",93%
same,Human liver microsomes; Fmax [%],[5],>95%
same,calculated maximal oral bioavailability (Fmax) at 1 μM,[5],> 60%
same,Dog liver microsomes; Fmax [%],[6]; [12],55%
same,Dog liver microsomes; Fmax [%],"[6]; dog liver microsomes, 1 μM",55%
"COc1cc(C(=O)N2CC(F)C2)ccc1Nc1nc2ccc(-c3ccc(NC(=O)[C@H](C)c4ccc(F)cc4)cc3)cn2n1 [Compound A3, (2R)-N-{4-[2-({4-[(3-fluoroazetidin-1-yl)carbonyl]-2-methoxyphenyl}amino)-[1,2,4]triazolo[1,5-α]pyridin-6-yl]phenyl}-2-(4-fluorophenyl)propanamide]",IC50,[3],< 10000 nM
same,Rat liver microsomes; Fmax [%],[4]; [12],83%
same,Rat liver microsomes; Fmax [%],"[4]; rat liver microsomes, 1 μM",83%
same,Human liver microsomes; Fmax [%],[5],>95%
same,calculated maximal oral bioavailability (Fmax) at 1 μM,[5],> 60%
same,Dog liver microsomes; Fmax [%],[6]; [12],86%
same,Dog liver microsomes; Fmax [%],"[6]; dog liver microsomes, 1 μM",86%
N#Cc1c(F)cccc1Nc1nc2ccc(-c3ccc(NC(=O)Cc4ccc(F)cc4)cc3)cn2n1 [reference compound],Dog liver microsomes; Fmax [%],[6]; [12],15%
COc1ccccc1Nc1nc2ccc(-c3ccc(NC(=O)Cc4ccccc4)cc3)cn2n1 [reference compound],Rat liver microsomes; Fmax [%],[4]; [12],40%
N#Cc1ccccc1Nc1nc2ccc(-c3ccc(NC(=O)Cc4ccc(F)cc4)cc3)cn2n1 [reference compound],Rat liver microsomes; Fmax [%],[4]; [12],40%
N#Cc1ccccc1Nc1nc2ccc(-c3ccc(NC(=O)C(F)(F)c4ccccc4)cc3)cn2n1 [reference compound],Rat liver microsomes; Fmax [%],[4]; [12],27%
N#Cc1ccccc1Nc1nc2ccc(-c3ccc(NC(=O)C(F)c4ccccc4)cc3)cn2n1 (stereo not shown) [reference compound],Rat liver microsomes; Fmax [%],[4]; [12],26%
COc1cc(C(=O)N2CCOCC2)ccc1Nc1nc2ccc(-c3ccc(NC(=O)Cc4ccc(F)cc4)cc3)cn2n1 [reference compound],Rat liver microsomes; Fmax [%],[4]; [12],48%
CCOc1cc(S(C)(=O)=O)ccc1Nc1nc2ccc(-c3ccc(C(=O)NCc4ccc(F)cc4)c(C)c3)cn2n1 [reference compound],Dog liver microsomes; Fmax [%],[6]; [12],12%
COc1cc(C(=O)NCC(F)(F)F)ccc1Nc1nc2ccc(-c3ccc(NC(=O)Cc4ccc(F)cc4)cc3)cn2n1 [reference compound],Dog liver microsomes; Fmax [%],[6]; [12],40%
COc1cc(N2CCOC2=O)ccc1Nc1nc2ccc(-c3ccc(NC(=O)Cc4ccc(F)cc4)cc3)cn2n1 [reference compound],Dog liver microsomes; Fmax [%],[6]; [12],17%
COc1cc(S(C)(=O)=O)ccc1Nc1nc2ccc(-c3ccc(NC(=O)Cc4ccc(F)cc4)cc3)cn2n1 [reference compound],Dog liver microsomes; Fmax [%],[6]; [12],10%
CS(=O)(=O)c1ccc(Nc2nc3ccc(-c4ccc(NC(=O)Cc5ccc(F)cc5)cc4)cn3n2)c(OCC(F)(F)F)c1 [reference compound],Dog liver microsomes; Fmax [%],[6]; [12],25%
N#Cc1ccccc1Nc1nc2cnc(-c3ccc(NC(=O)Cc4ccc(F)cc4)cc3)cn2n1 [reference compound],IC50,[2]; [10],1500 nM
N#Cc1ccccc1Nc1nc2ccc(-c3ccc(NC(=O)C4(c5ccccc5)CC4)cc3)cn2n1 [reference compound],IC50,[2]; [10],1400 nM
same,IC50,[7]; [13],11 nM
NC(C(=O)Nc1ccc(-c2ccc3nc(Nc4ccccc4C(F)(F)F)nn3c2)cc1)c1ccccc1 (stereo not shown) [reference compound],IC50,[7]; [13],13 nM
